Measurements taken from PubChem BioAssay (NCI).
Where “and” joins values, the source holds several entries; their conditions need not be identical. Equal values may be shown once.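 Five concentrations, 48 hours, 96-well plates. The concentration for 50% growth inhibition is given as GI50. TGI is the concentration that stops growth completely.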

Assays:
Experiment in all cases: NCI tumour cell line growth inhibition, 48 h
[1] = system: CAKI-1 renal
[2] = system: SW-620 colon
[3] = system: T-47D breast
[4] = system: NCI/ADR-RES ovarian
[5] = system: COLO 205 colon
[6] = system: SF-295 CNS
[7] = system: SK-MEL-5 melanoma
[8] = system: M14 melanoma
[9] = system: 786-0 renal
[10] = system: CCRF-CEM leukemia

CC(=O)c1ccc2c(c1)C1C=CCC1[C@H](c1cc3c(cc1Br)OCO3)N2 (some centres not stated)
GI50 [1]: 0.512 µM | TGI [1]: 20.5 µM | GI50 [2]: 0.448 µM | TGI [2]: > 29.2 µM | GI50 [3]: 1.74 µM | TGI [3]: > 47.4 µM | GI50 [4]: 1.33 µM | TGI [4]: 4.71 µM | GI50 [5]: 1.94 µM | TGI [5]: 5.71 µM | GI50 [6]: 0.382 µM | TGI [6]: 3.07 µM | GI50 [7]: 1.13 µM | TGI [7]: 5.81 µM | GI50 [8]: 0.765 µM | TGI [8]: 5.38 µM | GI50 [9]: 1.53 µM | TGI [9]: 15.3 µM | GI50 [10]: 0.644 µM | TGI [10]: 2.77 µM

COc1ccc(/C=C/C(=O)/C=C/c2cc3ccccc3[nH]c2=O)cc1
GI50 [1]: 4.3 µM | TGI [1]: 17.8 µM | GI50 [2]: 1.89 µM | TGI [2]: 4.56 µM | GI50 [3]: 3.34 µM | TGI [3]: 12.4 µM | GI50 [4]: 20.5 µM | TGI [4]: > 100 µM | GI50 [5]: 3.31 µM | TGI [5]: 9.37 µM | GI50 [6]: 2.65 µM | TGI [6]: 8.02 µM | GI50 [7]: 11 µM | TGI [7]: 25.1 µM | GI50 [8]: 2.8 µM | TGI [8]: 8.92 µM | GI50 [9]: 1.87 µM | TGI [9]: 3.51 µM | GI50 [10]: 2.98 µM | TGI [10]: 9.68 µM

CC(=O)Oc1ccc(C23c4ccccc4C2(OC(C)=O)c2cc(OC(C)=O)ccc23)cc1 (configuration not stated)
GI50 [1]: 4.08 µM | TGI [1]: 17.2 µM | GI50 [2]: 3.73 µM | TGI [2]: 12.7 µM | GI50 [3]: 2.22 µM | TGI [3]: 7.45 µM | GI50 [4]: 2.82 µM | TGI [4]: 10.2 µM | GI50 [5]: 14.5 µM | TGI [5]: 29.1 µM | GI50 [6]: 4.37 µM | TGI [6]: 20.4 µM | GI50 [7]: 6.19 µM | TGI [7]: 20.3 µM | GI50 [8]: 14 µM | TGI [8]: 32.1 µM | GI50 [9]: 6.56 µM | TGI [9]: 20.5 µM | GI50 [10]: 3.05 µM | TGI [10]: 12.4 µM

O=S(=O)(NC1=NCCN1C(=S)SN1CCn2c1nsc2=S)c1cccc2ccccc12
GI50 [1]: 22.8 µM | TGI [1]: 69.7 µM | GI50 [2]: 33.2 µM | TGI [2]: > 100 µM | GI50 [3]: 20.2 µM | TGI [3]: > 100 µM | GI50 [4]: 45.5 µM | TGI [4]: > 100 µM | GI50 [5]: 26.8 µM | TGI [5]: > 100 µM | GI50 [6]: 18.4 µM | TGI [6]: 71.1 µM | GI50 [7]: 19.1 µM | TGI [7]: 54.4 µM | GI50 [8]: 24.6 µM | TGI [8]: > 100 µM | GI50 [9]: 23.9 µM | TGI [9]: 72.6 µM | GI50 [10]: 2.5 µM | TGI [10]: > 100 µM

COc1ccccc1C#Cc1ccccc1C#CCCCCO
GI50 [1]: 19.7 µM | TGI [1]: 42.7 µM | GI50 [2]: 19.2 µM | TGI [2]: 46.4 µM | GI50 [3]: 18.5 µM | TGI [3]: 65.8 µM | GI50 [4]: 21.9 µM | TGI [4]: 47.4 µM | GI50 [5]: 18.3 µM | TGI [5]: 37.7 µM | GI50 [6]: 22.1 µM | TGI [6]: 45.1 µM | GI50 [7]: 14.1 µM | TGI [7]: 29.5 µM | GI50 [9]: 13.6 µM | TGI [9]: 29.7 µM | GI50 [10]: 16.3 µM | TGI [10]: 85.6 µM

CCOC(=O)C(Cc1c[nH]c2c(N(CCO)CCO)cccc12)(NC(C)=O)C(=O)OCC
GI50 [2]: 431 µM | TGI [2]: > 1000 µM | GI50 [3]: 396 µM | TGI [3]: > 1000 µM | GI50 [4]: > 1000 µM | TGI [4]: > 1000 µM | GI50 [5]: 330 µM | TGI [5]: > 1000 µM | GI50 [6]: 148 µM | TGI [6]: > 1000 µM | GI50 [7]: 323 µM | TGI [7]: > 1000 µM | GI50 [8]: > 1000 µM | TGI [8]: > 1000 µM | GI50 [9]: > 1000 µM | TGI [9]: > 1000 µM | GI50 [10]: 59.4 µM and 190 µM | TGI [10]: 430 µM

CCCCCCCCOC(=O)CC[C@@H](C)[C@H]1CC[C@H]2[C@@H]3[C@H](OC(=O)CCN)C[C@@H]4C[C@H](OC(=O)CCN)CC[C@]4(C)[C@H]3C[C@H](OC(=O)CCN)[C@]12C
GI50 [1]: 18 µM | TGI [1]: 34.6 µM | GI50 [2]: 1.95 µM | TGI [2]: 3.93 µM | GI50 [3]: 12.3 µM | TGI [3]: 39.9 µM | GI50 [4]: 17.2 µM | TGI [4]: 37.8 µM | GI50 [5]: 4.74 µM | TGI [5]: 20.6 µM | GI50 [6]: 3.51 µM | TGI [6]: 15.9 µM | GI50 [7]: 19.4 µM | TGI [7]: 51.7 µM | GI50 [8]: 4.61 µM | TGI [8]: 22.9 µM | GI50 [9]: 15 µM | TGI [9]: 37.1 µM

COc1ccc(NC(=O)CSC2=C(Nc3cccc(Br)c3)C(=O)N(Cc3ccccc3)C2=O)cc1Cl
GI50 [1]: > 100 µM | TGI [1]: > 100 µM | GI50 [2]: > 100 µM | TGI [2]: > 100 µM | GI50 [3]: > 100 µM | TGI [3]: > 100 µM | GI50 [5]: > 100 µM | TGI [5]: > 100 µM | GI50 [6]: > 100 µM | TGI [6]: > 100 µM | GI50 [7]: 16.8 µM | TGI [7]: > 100 µM | GI50 [8]: > 100 µM | TGI [8]: > 100 µM | GI50 [9]: > 100 µM | TGI [9]: > 100 µM | GI50 [10]: 1.72 µM | TGI [10]: 29.6 µM

CC[n+]1oc(C(=O)c2ccc(Cl)cc2)c(-c2ccccc2)c1-c1ccccc1.[Cl][Fe]([Cl])([Cl])[Cl]
GI50 [2]: > 100 µM | TGI [2]: > 100 µM | GI50 [3]: 0.462 µM | TGI [3]: 35.1 µM | GI50 [4]: > 100 µM | TGI [4]: > 100 µM | GI50 [5]: 50.7 µM | TGI [5]: > 100 µM | GI50 [6]: 53.1 µM | TGI [6]: > 100 µM | GI50 [7]: 19.5 µM | TGI [7]: 45.8 µM | GI50 [8]: 52.5 µM | TGI [8]: > 100 µM | GI50 [9]: 91.8 µM | TGI [9]: > 100 µM | GI50 [10]: 14.8 µM | TGI [10]: 39.4 µM

O=C(/C=C/C12c3ccccc3C(c3ccccc31)C1C(=O)NC(=O)C12)c1ccc(Cl)cc1Cl (configuration not stated)
GI50 [1]: 1.57 µM | TGI [1]: 3.05 µM | GI50 [2]: 2.19 µM | TGI [2]: 4.58 µM | GI50 [3]: 2.48 µM | TGI [3]: 9.59 µM | GI50 [5]: 2.2 µM | TGI [5]: 4.24 µM | GI50 [6]: 1.78 µM | TGI [6]: 3.63 µM | GI50 [7]: 1.71 µM | TGI [7]: 3.34 µM | GI50 [8]: 1.83 µM | TGI [8]: 3.54 µM | GI50 [9]: 1.7 µM | TGI [9]: 3.22 µM | GI50 [10]: 1.89 µM | TGI [10]: 7.23 µM

COc1ccc(S(=O)(=O)N2CCN(C(=O)c3ccc(-c4ccccc4)cc3)CC2C(=O)NO)cc1 (configuration not stated)
GI50 [1]: 2.99 µM and 21.9 µM | TGI [1]: 12.5 µM and > 100 µM | TGI [3]: 12.5 µM and > 100 µM | TGI [5]: 12.5 µM and > 100 µM | GI50 [6]: 3.85 µM and 25.7 µM | TGI [6]: 12.5 µM and > 100 µM | GI50 [8]: 1.96 µM | TGI [8]: 10 µM | TGI [9]: 12.4 µM and > 100 µM | GI50 [10]: > 100 µM | TGI [10]: > 100 µM

O=S(=O)(NCCNc1nccc(-c2c(-c3ccc(F)c(O)c3)nc3sccn23)n1)c1ccc(F)cc1
GI50 [1]: 4.02 µM | TGI [1]: 31.6 µM | GI50 [2]: 5.22 µM | TGI [2]: 30.4 µM | GI50 [3]: 5.02 µM | TGI [3]: 28 µM | GI50 [4]: 8.5 µM | TGI [4]: > 100 µM | GI50 [5]: 5.62 µM | TGI [5]: 36.1 µM | GI50 [6]: 3.41 µM | TGI [6]: 39.7 µM | GI50 [7]: 1.52 µM | TGI [7]: 2.98 µM | GI50 [8]: 0.364 µM | TGI [8]: 16.5 µM | GI50 [9]: 3.21 µM | TGI [9]: > 100 µM
